Assays:
CDK4/CyclinD1 = CDK4/CyclinD1 (Homo sapiens, UniProt P11802); assay: CDK4/CyclinD1 Flashplate assay, 96-well format, biotinylated-Rb peptide substrate; format: biochemical
Method in brief: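 Biotinylated Rb peptide bound to streptavidin Flashplate; CDK4/CyclinD1 (70 ng/well) preincubated 30 min on ice with compound at 10, 3, 1, 0.3 and 0.1 μM final. Reaction with 1 μM cold ATP plus 33P-ATP for 45 min at RT; incorporated 33P counted, duplicates.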

CDK2/CyclinE = CDK2/CyclinE (Homo sapiens, UniProt P24941); assay: CDK2/CyclinE Flashplate assay, 96-well format, biotinylated-Rb peptide substrate; format: biochemical
Method in brief: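 Biotinylated Rb peptide was captured on streptavidin Flashplates, and CDK2/CyclinE (200 ng/well) was preincubated 30 min on ice with inhibitor at 10, 3, 1, 0.3 or 0.1 μM final. Reactions ran 45 min at RT with 1 μM ATP plus 1 μCi ^33P-ATP. After washing, incorporated ^33P was counted, in duplicate.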

Sequence of CDK4/CyclinD1 (P11802 whole entry, species assumed): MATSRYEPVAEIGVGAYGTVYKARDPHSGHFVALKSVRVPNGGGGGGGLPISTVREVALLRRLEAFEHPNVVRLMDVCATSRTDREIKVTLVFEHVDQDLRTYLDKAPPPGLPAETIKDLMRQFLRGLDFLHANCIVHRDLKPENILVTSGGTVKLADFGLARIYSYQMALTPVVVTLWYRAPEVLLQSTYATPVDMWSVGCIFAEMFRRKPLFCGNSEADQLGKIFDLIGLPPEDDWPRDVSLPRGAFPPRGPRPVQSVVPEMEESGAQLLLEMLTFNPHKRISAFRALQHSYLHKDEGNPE
Sequence of CDK4/CyclinD1 (P24385 whole entry partner, species assumed): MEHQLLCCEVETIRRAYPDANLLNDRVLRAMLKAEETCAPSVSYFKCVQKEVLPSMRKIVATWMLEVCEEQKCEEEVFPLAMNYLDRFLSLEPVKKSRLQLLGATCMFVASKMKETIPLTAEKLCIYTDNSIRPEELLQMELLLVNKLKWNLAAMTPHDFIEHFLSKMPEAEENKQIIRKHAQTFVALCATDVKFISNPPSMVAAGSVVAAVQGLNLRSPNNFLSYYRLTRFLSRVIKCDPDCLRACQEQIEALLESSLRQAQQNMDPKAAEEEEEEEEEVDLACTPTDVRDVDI

| SMILES | IC50 (CDK4/CyclinD1) [nM] | IC50 (CDK2/CyclinE) [nM] | inhibition at 10 µM (CDK4/CyclinD1) [%] |
| --- | --- | --- | --- |
| COC(=O)CCCNC(=O)Nc1nc2cc(OS(=O)(=O)c3ccc(NC4CCCC4)cc3)ccc2[nH]1 [Example 58-m, 4-{3-[5-(4-Cyclopentylamino-benzenesulfonyloxy)-1H-benzoimidazol-2-yl]-ureido}-butyric acid methyl ester] | 240 | 30 |  |
| COC(=O)CNC(=O)Nc1nc2cc(OS(=O)(=O)c3ccc(NC4CCCC4)cc3)ccc2[nH]1 [Example 58-o, 4-{3-[5-(4-Cyclopentylamino-benzenesulfonyloxy)-1H-benzoimidazol-2-yl]-ureido}-acetic acid methyl ester] | 29 | 20 |  |
| COC(=O)[C@@H]1CCCN1C(=O)Nc1nc2cc(OS(=O)(=O)c3ccc(NC4CCCC4)cc3)ccc2[nH]1 [Example 58-r, 1-[5-(4-Cyclopentylamino-benzenesulfonyloxy)-1H-benzoimidazol-2S-yl-carbamoyl]-pyrrolidine-2-carboxylic acid methyl ester] |  | 20 | 80 |
| NC(=O)CNC(=O)Nc1nc2cc(OS(=O)(=O)c3ccc(NC4CCCC4)cc3)ccc2[nH]1 [Example 58-s, 4-Cyclopentylamino-benzenesulfonic acid 2-(3-carbamoylmethyl-ureido)-1H-benzoimidazol-5-yl ester] | 12 | 20 |  |
| O=C(NCC1CCNCC1)Nc1nc2cc(OS(=O)(=O)c3ccc(NC4CCCC4)cc3)ccc2[nH]1 [Example 58-u, 4-Cyclopentylamino-benzenesulfonic acid 2-(3-piperidin-4-ylmethyl-ureido)-1H-benzoimidazol-5-yl ester] | 290 | 10 |  |
| O=C(NCCN1CCOCC1)Nc1nc2cc(OS(=O)(=O)c3ccc(NC4CCCC4)cc3)ccc2[nH]1 [Example 58-v, 4-Cyclopentylamino-benzenesulfonic acid 2-[3-(2-morpholin-4-yl-ethyl)-ureido]-1H-benzoimidazol-5-yl ester] | 110 | 100 |  |
| CC(C)(N)CNC(=O)Nc1nc2cc(OS(=O)(=O)c3ccc(NC4CCCC4)cc3)ccc2[nH]1 [Example 58-w, 4-Cyclopentylamino-benzenesulfonic acid 2-[3-(2-amino-2-methyl-propyl)-ureido]-1H-benzoimidazol-5-yl ester] | 190 | 250 |  |
| O=C(Nc1nc2cc(OS(=O)(=O)c3ccc(NC4CCCC4)cc3)ccc2[nH]1)N[C@H]1CC[C@H](O)CC1 [Example 58-x, 4-Cyclopentylamino-benzenesulfonic acid 2-[3-(4trans-hydroxy-cyclohexyl)-ureido]-1H-benzoimidazol-5-yl ester] | 310 | 40 |  |
| O=C(NCCCO)Nc1nc2cc(OS(=O)(=O)c3ccc(NC4CCCC4)cc3)ccc2[nH]1 [Example 58-y, 4-Cyclopentylamino-benzenesulfonic acid 2-[3-(3-hydroxy-propyl)-ureido]-1H-benzoimidazol-5-yl ester] | 270 | 10 |  |
| NC(=O)CNC(=O)Nc1nc2cc(OS(=O)(=O)c3ccc(NCC4CCCO4)cc3)ccc2[nH]1 (centres unmarked) [Example 59-a, 4-[(Tetrahydro-furan-2-ylmethyl)-amino]-benzenesulfonic acid 2-(3-carbamoylmethyl-ureido)-1H-benzoimidazol-5-yl ester] | 100 | 8 |  |
| O=C(NCCO)Nc1nc2cc(OS(=O)(=O)c3ccc(NCC4CCCO4)cc3)ccc2[nH]1 (centres unmarked) [Example 59-b, 4-[(Tetrahydro-furan-2-ylmethyl)-amino]-benzenesulfonic acid 2-[3-(2-hydroxy-ethyl)-ureido]-1H-benzoimidazol-5-yl ester] | 300 | 7 |  |
| O=C(NCCCO)Nc1nc2cc(OS(=O)(=O)c3ccc(NCC4CCCO4)cc3)ccc2[nH]1 (centres unmarked) [Example 59-c, 4-[(Tetrahydro-furan-2-ylmethyl)-amino]-benzenesulfonic acid 2-[3-(3-hydroxy-propyl)-ureido]-1H-benzoimidazol-5-yl ester] | 1000 | 7 |  |
| O=C(NCCCCO)Nc1nc2cc(OS(=O)(=O)c3ccc(NCC4CCCO4)cc3)ccc2[nH]1 (centres unmarked) [Example 59-d, 4-[(Tetrahydro-furan-2-ylmethyl)-amino]-benzenesulfonic acid 2-[3-(4-hydroxy-butyl)-ureido]-1H-benzoimidazol-5-yl ester] | 500 | 15 |  |
| COCC(C)NC(=O)Nc1nc2cc(OS(=O)(=O)c3ccc(NCC4CCCO4)cc3)ccc2[nH]1 (centres unmarked) [Example 59-e, 4-[(Tetrahydro-furan-2-ylmethyl)-amino]-benzenesulfonic acid 2-[3-(2-methoxy-1-methyl-ethyl)-ureido]-1H-benzoimidazol-5-yl ester] | 1600 | 100 |  |
| CCN1CCCC1CNC(=O)Nc1nc2cc(OS(=O)(=O)c3ccc(NCC4CCCO4)cc3)ccc2[nH]1 (centres unmarked) [Example 59-f, 4-[(Tetrahydro-furan-2-ylmethyl)-amino]-benzenesulfonic acid 2-[3-(1-ethyl-pyrrolidin-2-ylmethyl)-ureido]-1H-benzoimidazol-5-yl ester] | 1800 | 60 |  |
| O=C(NCCN1CCCC1)Nc1nc2cc(OS(=O)(=O)c3ccc(NCC4CCCO4)cc3)ccc2[nH]1 (centres unmarked) [Example 59-g, 4-[(Tetrahydro-furan-2-ylmethyl)-amino]-benzenesulfonic acid 2-[3-(2-pyrrolidin-1-yl-ethyl)-ureido]-1H-benzoimidazol-5-yl ester] | 1800 | 200 |  |
| O=C(NCCCN1CCCC1)Nc1nc2cc(OS(=O)(=O)c3ccc(NCC4CCCO4)cc3)ccc2[nH]1 (centres unmarked) [Example 59-h, 4-[(Tetrahydro-furan-2-ylmethyl)-amino]-benzenesulfonic acid 2-[3-(3-pyrrolidin-1-yl-propyl)-ureido]-1H-benzoimidazol-5-yl ester] | 1100 | 200 |  |
| O=C(NCCN1CCOCC1)Nc1nc2cc(OS(=O)(=O)c3ccc(NCC4CCCO4)cc3)ccc2[nH]1 (centres unmarked) [Example 59-i, 4-[(Tetrahydro-furan-2-ylmethyl)-amino]-benzenesulfonic acid 2-[3-(2-morpholin-4-yl-ethyl)-ureido]-1H-benzoimidazol-5-yl ester] | 1200 | 40 |  |
| CCNC(=O)Nc1nc2cc(OS(=O)(=O)c3ccc(NCC4CCCO4)cc3)ccc2[nH]1 (centres unmarked) [Example 59-j, 4-[(Tetrahydro-furan-2-ylmethyl)-amino]-benzenesulfonic acid 2-(3-ethyl-ureido)-1H-benzoimidazol-5-yl ester] | 900 | 7 |  |
| O=C(NCc1ccccn1)Nc1nc2cc(OS(=O)(=O)c3ccc(NCC4CCCO4)cc3)ccc2[nH]1 (centres unmarked) [Example 59-k, 4-[(Tetrahydro-furan-2-ylmethyl)-amino]-benzenesulfonic acid 2-(3-pyridin-2-ylmethyl-ureido)-1H-benzoimidazol-5-yl ester] | 300 | 20 |  |
| O=C(NCc1cccnc1)Nc1nc2cc(OS(=O)(=O)c3ccc(NCC4CCCO4)cc3)ccc2[nH]1 (centres unmarked) [Example 59-l, 4-[(Tetrahydro-furan-2-ylmethyl)-amino]-benzenesulfonic acid 2-(3-pyridin-3-ylmethyl-ureido)-1H-benzoimidazol-5-yl ester] | 300 | 4 |  |
| CN1CCN(CCCNC(=O)Nc2nc3cc(OS(=O)(=O)c4ccc(NCC5CCCO5)cc4)ccc3[nH]2)CC1 (centres unmarked) [Example 59-m, 4-[(Tetrahydro-furan-2-ylmethyl)-amino]-benzenesulfonic acid 2-{3-[3-(4-methyl-piperazin-1-yl)-propyl]-ureido}-1H-benzoimidazol-5-yl ester] | 1200 | 30 |  |
| O=C(NCCS(=O)(=O)O)Nc1nc2cc(OS(=O)(=O)c3ccc(NCC4CCCO4)cc3)ccc2[nH]1 (centres unmarked) [Example 59-n, 4-[(Tetrahydro-furan-2-ylmethyl)-amino]-benzenesulfonic acid 2-[3-(2-sulfo-ethyl)-ureido]-1H-benzoimidazol-5-yl ester] | 130 | 36 |  |
| O=C(Nc1nc2cc(OS(=O)(=O)c3ccc(NCC4CCCO4)cc3)ccc2[nH]1)NC1CCC1 (centres unmarked) [Example 59-o, 4-[(Tetrahydro-furan-2-ylmethyl)-amino]-benzenesulfonic acid 2-(3-cyclobutyl-ureido)-1H-benzoimidazol-5-yl ester] | 800 | 40 |  |
| O=C(NCCCN1CCCC1=O)Nc1nc2cc(OS(=O)(=O)c3ccc(NCC4CCCO4)cc3)ccc2[nH]1 (centres unmarked) [Example 59-p, 4-[(Tetrahydro-furan-2-ylmethyl)-amino]-benzenesulfonic acid 2-{3-[3-(2-oxo-pyrrolidin-1-yl)-propyl]-ureido}-1H-benzoimidazol-5-yl ester] | 180 | 17 |  |
| O=C(NCCNCCO)Nc1nc2cc(OS(=O)(=O)c3ccc(NCC4CCCO4)cc3)ccc2[nH]1 (centres unmarked) [Example 59-q, 4-[(Tetrahydro-furan-2-ylmethyl)-amino]-benzenesulfonic acid 2-{3-[2-(2-hydroxy-ethylamino)-ethyl]-ureido}-1H-benzoimidazol-5-yl ester] | 750 | 110 |  |
| O=C(NCCN1CCCCC1)Nc1nc2cc(OS(=O)(=O)c3ccc(NCC4CCCO4)cc3)ccc2[nH]1 (centres unmarked) [Example 59-r, 4-[(Tetrahydro-furan-2-ylmethyl)-amino]-benzenesulfonic acid 2-[3-(2-piperidin-1-yl-ethyl)-ureido]-1H-benzoimidazol-5-yl ester] | 1800 | 220 |  |
| COC(=O)Nc1nc2cc(OS(=O)(=O)c3cccs3)ccc2[nH]1 [Example 62-b, Thiophene-2-sulfonic acid 2-methoxycarbonylamino-1H-benzoimidazol-5-yl ester] | 440 | 200 |  |

From US20050014811A1, “Substituted benzimidazole compounds and their use for the treatment of cancer” (Aventis Pharma S.A., priority 2001, published 2005)
